Laboratory results as given in ChEMBL document CHEMBL1177797, “Discovery of 3,9-diazabicyclo[4.2.1]nonanes as potent dual orexin receptor antagonists with sleep-promoting activity in the rat” (Bioorg Med Chem Lett, 2010).
Activity calls are given as the source filed them. The calls are words filed in the database; no cut-off is given here.

Tests used:
Orexin receptor type 2 [1] = molecular target: T1, Orexin receptor type 2 (Homo sapiens, UniProt O43614); experiment: Antagonist activity at OX2R by FLIPR assay; format: functional
T1 sequence (O43614 whole entry): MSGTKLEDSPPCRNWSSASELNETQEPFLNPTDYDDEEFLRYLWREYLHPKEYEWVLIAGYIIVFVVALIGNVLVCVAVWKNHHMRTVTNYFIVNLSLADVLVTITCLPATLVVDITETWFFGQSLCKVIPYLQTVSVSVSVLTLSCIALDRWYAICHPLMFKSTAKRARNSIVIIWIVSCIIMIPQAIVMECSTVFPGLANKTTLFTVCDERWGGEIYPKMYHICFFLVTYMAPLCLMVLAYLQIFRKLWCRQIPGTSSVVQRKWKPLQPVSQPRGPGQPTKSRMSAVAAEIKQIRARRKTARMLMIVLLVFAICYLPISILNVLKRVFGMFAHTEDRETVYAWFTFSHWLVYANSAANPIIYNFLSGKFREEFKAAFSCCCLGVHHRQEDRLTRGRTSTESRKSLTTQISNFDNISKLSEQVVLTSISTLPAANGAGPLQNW

[2] = molecular target: T2, Orexin/Hypocretin receptor type 1 (Homo sapiens, UniProt O43613); experiment: Antagonist activity at OX1R by FLIPR assay; format: functional
T2 sequence (O43613 whole entry): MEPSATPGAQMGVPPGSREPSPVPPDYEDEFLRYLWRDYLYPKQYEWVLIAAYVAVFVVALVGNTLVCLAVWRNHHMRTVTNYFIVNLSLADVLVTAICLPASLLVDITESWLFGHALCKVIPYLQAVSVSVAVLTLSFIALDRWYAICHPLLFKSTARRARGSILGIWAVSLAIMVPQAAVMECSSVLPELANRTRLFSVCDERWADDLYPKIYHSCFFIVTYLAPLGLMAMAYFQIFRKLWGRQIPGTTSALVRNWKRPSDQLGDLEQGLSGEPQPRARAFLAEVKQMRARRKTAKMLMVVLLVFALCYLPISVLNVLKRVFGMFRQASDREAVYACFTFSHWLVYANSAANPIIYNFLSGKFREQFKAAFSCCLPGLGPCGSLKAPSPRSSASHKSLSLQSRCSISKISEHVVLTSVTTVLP

Orexin receptor type 2 [3] = molecular target: T1, Orexin receptor type 2; experiment: Binding affinity to OX2R
[4] = molecular target: T2, Orexin/Hypocretin receptor type 1; experiment: Binding affinity to OX1R
[5] = Drug level in Sprague-Dawley rat CSF at 10 mg/kg after 2 hrs; format: ADME, organism-based, Cerebrospinal fluid; parameters: dose 10 mg/kg; details: read-out: Drug uptake
[6] = Clearance in dog at 3 mg/kg, po and 0.125 mg/kg, iv; format: ADME, organism-based, Canis lupus familiaris; details: in vivo
[7] = Drug level in Sprague-Dawley rat plasma at 100 mg/kg after 2 hrs administered in PEG400; format: ADME, organism-based; parameters: dose 100 mg/kg; details: read-out: Drug uptake
[8] = Drug level in Sprague-Dawley rat CSF at 60 mg/kg after 1 hr; format: ADME, organism-based, Cerebrospinal fluid; parameters: dose 60 mg/kg; details: read-out: Drug uptake
[9] = Drug level in Sprague-Dawley rat CSF at 30 mg/kg after 2 hrs; format: ADME, organism-based, Cerebrospinal fluid; parameters: dose 30 mg/kg; details: read-out: Drug uptake
Rattus norvegicus [10] = experiment: AUC (0 to 24 hrs) in Sprague-Dawley rat at 10 mg/kg, po and 2 mg/kg, iv; format: ADME, organism-based, Plasma; details: in vivo
[11] = Half life in dog at 3 mg/kg, po and 0.125 mg/kg, iv; format: ADME, organism-based, Canis lupus familiaris; details: in vivo
[12] = Ratio of drug level in CSF to plasma in Sprague-Dawley rat at 60 mg/kg after 1 hr; format: ADME, organism-based; parameters: dose 60 mg/kg
[13] = Half life in Sprague-Dawley rat at 10 mg/kg, po and 2 mg/kg, iv; format: ADME, organism-based; details: in vivo
[14] = Drug level in Sprague-Dawley rat plasma at 10 mg/kg after 2 hrs; format: ADME, organism-based; parameters: dose 10 mg/kg; details: read-out: Drug uptake
[15] = Ratio of drug level in CSF to plasma in Sprague-Dawley rat at 10 mg/kg after 2 hrs; format: ADME, organism-based; parameters: dose 10 mg/kg
[16] = Ratio of drug level in CSF to plasma in Sprague-Dawley rat at 30 mg/kg after 2 hrs; format: ADME, organism-based; parameters: dose 30 mg/kg
[17] = Drug level in Sprague-Dawley rat plasma at 60 mg/kg after 1 hr; format: ADME, organism-based; parameters: dose 60 mg/kg; details: read-out: Drug uptake
[18] = Cmax in dog at 3 mg/kg, po and 0.125 mg/kg, iv; format: ADME, organism-based, Canis lupus familiaris; details: in vivo
[19] = Oral bioavailability in dog at 3 mg/kg; format: ADME, organism-based, Canis lupus familiaris; details: in vivo
[20] = Clearance in Sprague-Dawley rat at 10 mg/kg, po and 2 mg/kg, iv; format: ADME, organism-based; details: in vivo
[21] = Oral bioavailability in Sprague-Dawley rat at 10 mg/kg; format: ADME, organism-based; details: in vivo
Canis familiaris = experiment: AUC (0 to 24 hrs) in dog at 3 mg/kg, po and 0.125 mg/kg, iv; format: ADME, organism-based, Canis lupus familiaris, Plasma; details: in vivo
[22] = Drug level in Sprague-Dawley rat plasma at 30 mg/kg after 2 hrs; format: ADME, organism-based; parameters: dose 30 mg/kg; details: read-out: Drug uptake
[23] = Cmax in Sprague-Dawley rat at 10 mg/kg, po and 2 mg/kg, iv; format: ADME, organism-based; details: in vivo
Rattus norvegicus [24] = experiment: Effect on sleep-awake pattern in rat assessed as increase in […] at 60 mg/kg/day, po; format: functional, organism-based
Rattus norvegicus [25] = experiment: Effect on sleep-awake pattern in rat assessed as increase in REM sleep at 60 mg/kg/day, po; format: functional, organism-based
Rattus norvegicus [26] = experiment: Effect on sleep-awake pattern in rat assessed as decrease in wakefulness at 60 mg/kg/day, po; format: functional, organism-based

SMILES	IC50 (Orexin receptor type 2 [1]) [µM]	IC50 [2] [µM]	Ki (Orexin receptor type 2 [3]) [µM]	Ki [4] [µM]	also measured
Cc1ccc(-n2nccn2)c(C(=O)N2CC[C@H]3CC[C@@H]2CN3c2ncc3ccc(F)cc3n2)c1	> 10	1.6	0.59	0.345	
Cc1ccc(-n2nccn2)c(C(=O)N2C[C@@H]3CC[C@H]2CN(c2ncc4ccc(F)cc4n2)C3)c1 (single isomer, unassigned)	0.79	0.046	0.062	0.002	
Cc1ccc(-n2nccn2)c(C(=O)N2C3CCC2CN(c2ncc4ccc(F)cc4n2)CC3)c1 (single isomer, unassigned; 8a) [listing 2 of 2 here]					Activity (Rattus norvegicus [24]): Active; Activity (Rattus norvegicus [25]): Active; Activity (Rattus norvegicus [26]): Active
Cc1ccc(-n2nccn2)c(C(=O)N2CCCN(c3ncc4ccccc4n3)CC2)c1					clearance [6]: 12 mL/min/kg; AUC (Rattus norvegicus [10]): 0.19 µM·h; AUC (Canis familiaris): 0.44 µM·h
Cc1ccc(-n2nccn2)c(C(=O)N2CC[C@@H]3CC[C@H]2CN3c2ncc3ccc(F)cc3n2)c1	1.45	2.3	0.105	0.16	

Now from value to compound, other results behind:

IC50 (Orexin receptor type 2 [1]) [µM]	IC50 [2] [µM]	Ki (Orexin receptor type 2 [3]) [µM]	Ki [4] [µM]	SMILES	also measured
0.37	0.104	0.0029	0.01	Cc1ccc(-n2nccn2)c(C(=O)N2C[C@H]3CC[C@@H]2CN(c2ncc4ccc(F)cc4n2)C3)c1 (single isomer, unassigned)	
0.74	0.8	0.014	0.0076	Cc1ccc(-n2nccn2)c(C(=O)N2C[C@@H]3CC[C@H]2CCN3c2ncc3ccc(F)cc3n2)c1	
0.175	0.072	0.0008	0.0009	Cc1ccc(-n2nccn2)c(C(=O)N2CCC3CCC(C2)N3c2ncc3ccc(F)cc3n2)c1 (racemic)	
0.136	0.098	0.0004	0.0006	Cc1ccc(-n2nccn2)c(C(=O)N2C3CCC2CN(c2ncc4ccc(F)cc4n2)CC3)c1 (single isomer, unassigned; 8a) [listing 1 of 2 here]	concentration at 2 h [5]: 3 nM; clearance [6]: 3.6 mL/min/kg; concentration at 2 h [7]: 12500 nM; concentration at 1 h [8]: 170 nM; concentration at 2 h [9]: 23 nM; AUC (Rattus norvegicus [10]): 1.57 µM·h; half-life [11]: 1.8 h; Kp at 1 h [12]: 0.011; half-life [13]: 1 h; concentration at 2 h [14]: 1100 nM; Kp at 2 h [15]: 0.004; Kp at 2 h [16]: 0.007; concentration at 1 h [17]: 14600 nM; Cmax [18]: 3400 nM; bioavailability [19]: 100%; clearance [20]: 23 mL/min/kg; bioavailability [21]: 14%; AUC (Canis familiaris): 14.1 µM·h; concentration at 2 h [22]: 3100 nM; Cmax [23]: 570 nM
0.15	0.099	0.0067	0.0037	Cc1ccc(-n2nccn2)c(C(=O)N2C3CCC2CN(c2ncc4ccc(F)cc4n2)CC3)c1 (single isomer, unassigned; 8b)	
0.14	0.125	0.0022	0.0006	Cc1ccc(-n2nccn2)c(C(=O)N2C[C@H]3CC[C@@H]2CCN3c2ncc3ccc(F)cc3n2)c1	
		0.0006	0.0004	O=C(c1cc(Cl)ccc1-n1nccn1)N1C[C@@H]2C[C@H](C1)N(c1ncc3cc(F)ccc3n1)C2	
